US7507721B2, “Macrolides with antiinflammatory activity” (Zambon Group S.p.A., priority 2004, dated 2009)

Each molecule was assayed on PMA-induced oedema in mouse ear (assay: Acute contact dermatitis: inhibition of PMA/TPA-induced oedema in mouse ear). Conditions: 6 h, CD1 mice, 500 μg/ear topical in TPDS, 30 minutes before TPA 0.01% in acetone, ear weight difference after six hours vs TPA only.
Type: in vivo
Description: The antiinflammatory activity has been evaluated as inhibition of PMA-induced oedema in mouse ear (Phorbol Myristate Acetate).
A) Acute contact dermatitis.
Groups of 5 CD1 mice (18-24 g) were used.
All the macrolide derivatives were dissolved in the Trans-phase Delivery System (TPDS) vehicle containing 10% benzyl alcohol, 40% acetone and 50% isopropanol.
15 microliters of the compounds (500 μg/ear), dissolved in TPDS, were applied topically onto the inner surface of an ear; after 30 minutes 12 microliters of a solution of acetate of tetradecanoyl-phorbol (TPA) with the concentration of 0.01% dissolved in acetone were applied onto the same area.
After six hours the animals were sacrified by inhalation of CO2.
The oedema level was calculated by detracting the weight of a defined portion of auricular ala of the not treated ear to the one of the treated controlateral ear. To determine the oedema remission level the weight difference of the groups treated with TPA+macrolides was compared with the ones of those treated with TPA only. The activity of the macrolides was measured by using the modified method of Zunic et coll. (1998): MDL (Lysyl) GDP, a non-toxil muramyl dipeptide derivative inhibits, cytokine production by activated macrophages and protects mice from phorbol ester-and oxazolone-induced inflammation (J. Invest Dermatol., 111(1), 77-82).
The data relating to erythromycin concern the treatment in single dose with 500 μg/ear.

| SMILES | inhibition in vivo at 500 µg/ear [%] |
| --- | --- |
| CC[C@H]1OC(=O)[C@H](C)[C@@H](O[C@H]2C[C@@](C)(OC)[C@@H](O)[C@H](C)O2)[C@H](C)[C@@H](O[C@@H]2O[C@H](C)C[C@H](N(C)C)[C@H]2O)[C@](C)(O)C[C@@H](C)CN(C)[C@H](C)[C@@H](O)[C@]1(C)O [Azithromycin, reference compound] | 40 |
| CC[C@H]1OC(=O)[C@H](C)[C@@H](O)[C@H](C)[C@@H](O[C@@H]2O[C@H](C)C[C@H](N(C)C(=O)COCc3cc(OC)ccn3)[C@H]2O)C(C)(O)C[C@@H](C)C(O)[C@H](C)[C@@H](O)[C@]1(C)O (stereo partly drawn) [Compound 1] | 61.5 |
| CC[C@H]1OC(=O)[C@H](C)[C@@H](O)[C@H](C)[C@@H](O[C@@H]2O[C@H](C)C[C@H](N(C)C(=O)Cc3ccccc3)[C@H]2O)C(C)(O)C[C@@H](C)[C@H](O)[C@H](C)[C@@H](O)[C@]1(C)O (stereo partly drawn) [Compound 2] | 88.1 |
| CC[C@H]1OC(=O)[C@H](C)[C@@H](O)[C@H](C)[C@@H](O[C@@H]2O[C@H](C)C[C@H](N(C)C(=O)c3ccccc3)[C@H]2O)C(C)(O)C[C@@H](C)[C@H](O)[C@H](C)[C@@H](O)[C@]1(C)O (stereo partly drawn) [Compound 3] | 89.9 |
| CC[C@H]1OC(=O)[C@H](C)[C@@H](O)[C@H](C)[C@@H](O[C@@H]2O[C@H](C)C[C@H](N(C)C(=O)c3ccco3)[C@H]2O)C(C)(O)C[C@@H](C)[C@H](O)[C@H](C)[C@@H](O)[C@]1(C)O (stereo partly drawn) [Compound 4] | 64.4 |
| CC[C@H]1OC(=O)[C@H](C)[C@@H](O)[C@H](C)[C@@H](O[C@@H]2O[C@H](C)C[C@H](N(C)C(=O)Cc3cccs3)[C@H]2O)C(C)(O)C[C@@H](C)[C@H](O)[C@H](C)[C@@H](O)[C@]1(C)O (stereo partly drawn) [Compound 5] | 53.7 |
| CC[C@H]1OC(=O)[C@H](C)[C@@H](O)[C@H](C)[C@@H](O[C@@H]2O[C@H](C)C[C@H](N(C)C(=O)c3ccc(C)cc3)[C@H]2O)C(C)(O)C[C@@H](C)[C@H](O)[C@H](C)[C@@H](O)[C@]1(C)O (stereo partly drawn) [Compound 6] | 77.8 |
| CC[C@H]1OC(=O)[C@H](C)[C@@H](O)[C@H](C)[C@@H](O[C@@H]2O[C@H](C)C[C@H](N(C)C(=O)c3cccnc3)[C@H]2O)C(C)(O)C[C@@H](C)[C@H](O)[C@H](C)[C@@H](O)[C@]1(C)O (stereo partly drawn) [Compound 7] | 46.1 |
| CC[C@H]1OC(=O)[C@H](C)[C@@H](O)[C@H](C)[C@@H](O[C@@H]2O[C@H](C)C[C@H](N(C)C(=O)CSc3ccccc3)[C@H]2O)C(C)(O)C[C@@H](C)[C@H](O)[C@H](C)[C@@H](O)[C@]1(C)O (stereo partly drawn) [Compound 8] | 57.6 |
| CCCCCCCC(=O)N(C)[C@H]1C[C@@H](C)O[C@@H](O[C@@H]2[C@@H](C)[C@H](O)[C@@H](C)C(=O)O[C@H](CC)[C@@](C)(O)[C@H](O)[C@@H](C)[C@@H](O)[C@H](C)CC2(C)O)[C@@H]1O (stereo partly drawn) [Compound 9] | 74.2 |
| CC[C@H]1OC(=O)[C@H](C)[C@@H](O)[C@H](C)[C@@H](O[C@@H]2O[C@H](C)C[C@H](N(C)C(=O)C3CCCCC3)[C@H]2O)C(C)(O)C[C@@H](C)[C@H](O)[C@H](C)[C@@H](O)[C@]1(C)O (stereo partly drawn) [Compound 10] | 89.2 |
| CC[C@H]1OC(=O)[C@H](C)[C@@H](O)[C@H](C)[C@@H](O[C@@H]2O[C@H](C)C[C@H](N(C)S(C)(=O)=O)[C@H]2O)C(C)(O)C[C@@H](C)[C@H](O)[C@H](C)[C@@H](O)[C@]1(C)O (stereo partly drawn) [Compound 11] | 55.3 |
| CC[C@H]1OC(=O)[C@H](C)[C@@H](O)[C@H](C)[C@@H](O[C@@H]2O[C@H](C)C[C@H](N(C)S(=O)(=O)c3ccc(C)cc3)[C@H]2O)C(C)(O)C[C@@H](C)[C@H](O)[C@H](C)[C@@H](O)[C@]1(C)O (stereo partly drawn) [Compound 12] | 72.2 |
| CCNC(=O)N(C)[C@H]1C[C@@H](C)O[C@@H](O[C@@H]2[C@@H](C)[C@H](O)[C@@H](C)C(=O)O[C@H](CC)[C@@](C)(O)[C@H](O)[C@@H](C)[C@@H](O)[C@H](C)CC2(C)O)[C@@H]1O (stereo partly drawn) [Compound 13] | 80.3 |
| CC[C@H]1OC(=O)[C@H](C)[C@@H](O)[C@H](C)[C@@H](O[C@@H]2O[C@H](C)C[C@H](N(C)C(=O)Nc3ccccc3)[C@H]2O)C(C)(O)C[C@@H](C)[C@H](O)[C@H](C)[C@@H](O)[C@]1(C)O (stereo partly drawn) [Compound 14] | 89.9 |
| CC[C@H]1OC(=O)[C@H](C)[C@@H](O)[C@H](C)[C@@H](O[C@@H]2O[C@H](C)C[C@H](N(C)C(=O)c3ccccc3)[C@H]2O)C(C)(OC)C[C@@H](C)C(=O)[C@H](C)[C@@H](O)[C@]1(C)O (stereo partly drawn) [Compound 15] | 74.3 |
| CC[C@H]1OC(=O)[C@H](C)[C@@H](O)[C@H](C)[C@@H](O[C@@H]2O[C@H](C)C[C@H](N(C)C(=O)c3ccc(F)cc3)[C@H]2O)C(C)(OC)C[C@@H](C)C(=O)[C@H](C)[C@@H](O)[C@]1(C)O (stereo partly drawn) [Compound 16] | 81.1 |
| CC[C@H]1OC(=O)[C@H](C)[C@@H](O)[C@H](C)[C@@H](O[C@@H]2O[C@H](C)C[C@H](N(C)C(=O)C(C)(C)C)[C@H]2O)C(C)(O)C[C@@H](C)/C(=N\OC(=O)C(C)(C)C)[C@H](C)[C@@H](O)[C@]1(C)O (stereo partly drawn) [Compound 17] | 51.2 |
| CC[C@H]1OC(=O)[C@H](C)[C@@H](O)[C@H](C)[C@@H](O[C@@H]2O[C@H](C)C[C@H](N(C)C(C)=O)[C@H]2O)C(C)(O)C[C@@H](C)/C(=N\OC(C)=O)[C@H](C)[C@@H](O)[C@]1(C)O (stereo partly drawn) [Compound 18] | 49 |
| CC[C@H]1OC(=O)[C@H](C)[C@@H](O)[C@H](C)[C@@H](O[C@@H]2O[C@H](C)C[C@H](N(C)C(=O)COC)[C@H]2O)C(C)(O)C[C@@H](C)/C(=N\O)[C@H](C)[C@@H](O)[C@]1(C)O (stereo partly drawn) [Compound 19] | 86.1 |
| CC[C@H]1OC(=O)[C@H](C)[C@@H](O)[C@H](C)[C@@H](O[C@@H]2O[C@H](C)C[C@H](N(C)C(=O)c3ccc(OC)cc3)[C@H]2O)C(C)(O)C[C@@H](C)/C(=N\O)[C@H](C)[C@@H](O)[C@]1(C)O (stereo partly drawn) [Compound 20] | 83.2 |
| CC[C@H]1OC(=O)[C@H](C)[C@@H](O)[C@H](C)[C@@H](O[C@@H]2O[C@H](C)C[C@H](N(C)C(=O)c3ccc(OC)cc3)[C@H]2O)C(C)(O)C[C@@H](C)/C(=N\OC(=O)c2ccc(OC)cc2)[C@H](C)[C@@H](O)[C@]1(C)O (stereo partly drawn) [Compound 21] | 53.3 |
| CC[C@H]1OC(=O)[C@H](C)[C@@H](O)[C@H](C)[C@@H](O[C@@H]2O[C@H](C)C[C@H](N(C)C(=O)c3cccnc3)[C@H]2O)C(C)(O)C[C@@H](C)/C(=N\O)[C@H](C)[C@@H](O)[C@]1(C)O (stereo partly drawn) [Compound 22] | 74.3 |
| CC[C@H]1OC(=O)[C@H](C)[C@@H](O)[C@H](C)[C@@H](O[C@@H]2O[C@H](C)C[C@H](N(C)C(=O)c3cccs3)[C@H]2O)C(C)(O)C[C@@H](C)/C(=N\O)[C@H](C)[C@@H](O)[C@]1(C)O (stereo partly drawn) [Compound 23] | 86.8 |
| CC[C@H]1OC(=O)[C@H](C)[C@@H](O)[C@H](C)[C@@H](O[C@@H]2O[C@H](C)C[C@H](N(C)C(=O)c3cccs3)[C@@H]2O)[C@](C)(O)C[C@H](C)/C(=N\OC(=O)c2cccs2)[C@@H](C)[C@H](O)[C@]1(C)O [Compound 24] | 41.3 |
| CC[C@H]1OC(=O)[C@H](C)[C@@H](O)[C@H](C)[C@@H](O[C@@H]2O[C@H](C)C[C@H](N(C)C(=O)Cc3cccs3)[C@H]2O)C(C)(O)C[C@@H](C)/C(=N\O)[C@H](C)[C@@H](O)[C@]1(C)O (stereo partly drawn) [Compound 25] | 79.3 |
| CC[C@H]1OC(=O)[C@H](C)[C@@H](O)[C@H](C)[C@@H](O[C@@H]2O[C@H](C)C[C@H](N(C)C(=O)C(C)(C)C)[C@H]2O)C(C)(O)C[C@@H](C)/C(=N\O)[C@H](C)[C@@H](O)[C@]1(C)O (stereo partly drawn) [Compound 26] | 68.6 |
| CC[C@H]1OC(=O)[C@H](C)[C@@H](O)[C@H](C)[C@@H](O[C@@H]2O[C@H](C)C[C@H](N(C)C(=O)Cc3cccs3)[C@H]2O)C(C)(O)C[C@@H](C)/C(=N\OC(=O)Cc2cccs2)[C@H](C)[C@@H](O)[C@]1(C)O (stereo partly drawn) [Compound 27] | 61.4 |
| CC[C@H]1OC(=O)[C@H](C)[C@@H](O)[C@H](C)[C@@H](O[C@@H]2O[C@H](C)C[C@H](N(C)C(=O)c3cccnc3Cl)[C@H]2O)C(C)(O)C[C@@H](C)/C(=N\O)[C@H](C)[C@@H](O)[C@]1(C)O (stereo partly drawn) [Compound 28] | 81.7 |
| CC[C@H]1OC(=O)[C@H](C)[C@@H](O[C@H]2C[C@@](C)(OC)[C@@H](O)[C@H](C)O2)[C@H](C)[C@@H](O[C@@H]2O[C@H](C)C[C@H](N(C)C)[C@H]2O)[C@](C)(O)C[C@@H](C)C(=O)[C@H](C)[C@@H](O)[C@]1(C)O [Erythromycin, reference compound] | 42.5 |
